Assay results taken from the pKa sets of Baltruschat and Czodrowski (2020).

Details: acidic group
In the case of N#CCCN(CCC#N)c1nnn[nH]1, the pKa is reported as 4.85.
For CCC(=O)CC(=O)CC, the pKa was 9.82.
Oc1ccc(O)cc1 gave a pKa of 9.93.
Compound O=C(O)Cc1ccsc1 has a pKa of 4.07.
With CCN(CC)C(=S)NC(=O)c1ccc(F)cc1 the pKa was 8.13.
Work on Cc1n[nH]c(O)c1-c1ccccc1 yielded a pKa of 11.4.
Cc1cccc(C)c1C(=O)O showed a pKa of 3.23.
For CC(=O)c1cccc(C(=O)O)c1, the pKa was 3.84.
With C[N+](C)(C)CCc1cccc(O)c1 the pKa was 9.43.
In the case of O=P1(O)CCCCC1, the pKa is reported as 2.73.
Work on Cc1nonc1NS(=O)(=O)c1ccc(N)cc1 yielded a pKa of 4.
In the case of CC1=C(C)/C(=C(\C)C(=O)O)CC1=O, the pKa is reported as 3.1.
With Oc1ccc2ccncc2c1 the pKa was 8.88.
C[NH+](C)Cc1cc(F)ccc1O showed a pKa of 8.12.
Work on O=c1oc2cc(O)ccc2cc1-c1nc2ccccc2s1 yielded a pKa of 7.02.
Work on O=C(O)[C@@H]1C[C@@H]1Br yielded a pKa of 4.09.
In the case of Cn1cnc(C(=O)O)c1C(=O)O, the pKa is reported as -0.56.
In the case of CC(Cl)C(=O)O (configuration not stated), the pKa is reported as 2.88.
CCC(C)CC(=O)O (configuration not stated) gave a pKa of 4.84.
Work on O=C([O-])/C(=N\O)c1ccccc1 yielded a pKa of 10.9.
For CCOC(=S)NC(=O)c1ccccc1, the pKa was 7.46.
For O=C([O-])[C@@H]1O[C@H](Oc2ccc3[nH+]c(O)ccc3c2)[C@@H](O)[C@H](O)[C@H]1O, the pKa was 3.75.
Work on Oc1cncnc1 yielded a pKa of 6.78.
CSc1ncc2[nH]cnc2n1 showed a pKa of 8.91.
Work on CCC(C)NC(C#N)=C(C#N)C#N (configuration not stated) yielded a pKa of 6.35.
For COC(=O)C1c2ccccc2-c2ccccc21, the pKa was 11.5.
With c1c[nH]cn1 the pKa was 14.5.
For CC(C)C[NH2+]CC(=O)O, the pKa was 2.35.
Work on Cc1nn(-c2ccccc2)c(O)c1C yielded a pKa of 11.3.
COc1ccc(/C=N/O)cc1OC gave a pKa of 10.8.
Oc1nsc2ccccc12 gave a pKa of 7.01.
With Oc1ccccc1Br the pKa was 8.4.
Work on Cc1ccc(C(=S)Nc2ccc(F)cc2)cc1 yielded a pKa of 11.
Compound S=C(Nc1ccc(Cl)c(Cl)c1)c1cccc(Br)c1 has a pKa of 9.26.
O=C([O-])CCc1nc2ccccc2[nH]1 showed a pKa of 13.1.
With CSc1nc(N)c2[nH]cnc2n1 the pKa was 10.2.
With Cc1nnc(NS(=O)(=O)c2ccc(O)cc2)s1 the pKa was 5.37.
In the case of O=C1NC(=O)[C@H](CSSC[C@@H]2NC(=O)NC2=O)N1, the pKa is reported as 8.1.
In the case of Oc1cc(Br)cc(Br)c1, the pKa is reported as 8.01.
O=C([O-])C[NH+](CC(=O)[O-])Cc1cc(Cl)cc(C[NH+](CC(=O)[O-])CC(=O)[O-])c1O gave a pKa of 6.27.
OC(c1ccncc1)(c1ccncc1)c1ccccn1 showed a pKa of 12.4.
In the case of NS(=O)(=O)c1ccccc1, the pKa is reported as 9.7.
C=C(C)C(=O)O gave a pKa of 4.66.
With O=C(O)C1CCc2ccccc2O1 (configuration not stated) the pKa was 3.38.
Oc1cc(Cl)c(Cl)c(Cl)c1 gave a pKa of 7.7.
With O=C(Oc1cccc([N+](=O)[O-])c1)C1c2ccccc2-c2ccccc21 the pKa was 9.84.
CC(=O)CC(=S)Nc1ccc(C)cc1 showed a pKa of 7.65.
Work on O=C(O)c1cc([N+](=O)[O-])ccc1F yielded a pKa of 2.73.
With O/N=C/c1ccc(O)cc1 the pKa was 8.78.
[NH3+]CCC(=O)N[C@@H](Cc1c[nH]c[nH+]1)C(=O)O showed a pKa of 2.7.
In the case of C[N+](C)(C)CCCC(=O)O, the pKa is reported as 4.02.
Compound CC(C)(S)C(C(=O)[O-])n1ccnc1Cc1ccccc1 (configuration not stated) has a pKa of 10.5.
In the case of O=C(O)c1ccoc1, the pKa is reported as 3.94.
With C[NH+](C)CCc1cccc(O)c1 the pKa was 9.24.
For Cc1nc(C(=O)[O-])ccc1O, the pKa was 9.49.
With Cc1cc(C(=O)O)cc(C)[n+]1O the pKa was -0.01.
Cc1nc2c(N)cccc2[nH]1 gave a pKa of 12.3.
For NS(=O)(=O)c1cccc(Cl)c1, the pKa was 9.04.
O=[N+]([O-])Cc1cccc(Cl)c1 gave a pKa of 6.63.
Work on CCc1cc([N+](=O)[O-])cc(CC)c1O yielded a pKa of 7.73.
Compound COc1cccc(NS(=O)(=O)c2ccccc2)c1 has a pKa of 7.95.
Work on Cc1ccc(NS(=O)(=O)c2ccccc2)cc1 yielded a pKa of 8.63.
With O=C(O)CC1CCCCO1 (configuration not stated) the pKa was 4.39.
With Oc1cccc2c1-c1c(O)cccc1-2 the pKa was 8.16.
Compound CCCCCCCCCCc1c(-c2ccccc2)n[nH]c1O has a pKa of 11.
Compound O=C(O)Cc1nnnn1-c1ccccc1 has a pKa of 3.1.
With COc1c(C)cccc1C(=O)O the pKa was 3.84.
Compound CCN(CC)Cc1cc(C)ccc1O has a pKa of 10.8.
Work on O=C(O)Cn1cnnn1 yielded a pKa of 2.27.
Work on O=C(/C(=N\O)c1ccccc1)c1ccccc1 yielded a pKa of 10.
Work on O/C(=C/c1ccccn1)c1ccccc1 yielded a pKa of 12.2.
Work on N#CSc1ccc(O)cc1 yielded a pKa of 8.57.
For c1ccc(CCNc2ncnc3[nH]ncc23)cc1, the pKa was 4.38.

Same assay, conditions: basic group
Compound Cc1ccc(CNCC[NH3+])cc1 has a pKa of 6.51.
With CCCCCCCCCCCCCCCCCCNCCCCCCCCCCCCCCCCCC the pKa was 11.
Work on CC(C)N/C=N/c1ccc(-c2c[nH]cn2)cc1 yielded a pKa of 8.88.
Work on Cc1nc(NCc2ccco2)c2cn[nH]c2n1 yielded a pKa of 4.65.
For CC[C@@H]1C(=O)OC[C@H]1Cc1cncn1C, the pKa was 7.17.
For C/N=C(\C)SC, the pKa was 7.71.
N/C(=N\O)c1ccccc1N gave a pKa of 4.5.
Work on NCCCCCN yielded a pKa of 10.8.
For Nc1ncc([N+](=O)[O-])s1, the pKa was 0.61.
For c1c(CN2CCNCCNCC2)n[nH]c1CN1CCNCCNCC1, the pKa was 11.2.
C[Si](C)(C)OC1CN(Cc2ccccc2)C1 showed a pKa of 8.08.
CCOc1nccc([O-])n1 showed a pKa of 8.2.
Compound CCCCCCCCNCc1ccc(C)cc1 has a pKa of 9.47.
c1c[nH]c(P(c2ncc[nH]2)c2ncc[nH]2)n1 showed a pKa of 7.44.
In the case of CCCCCCCCCCCCCCN(CC(C)O)CC(C)O (configuration not stated), the pKa is reported as 8.4.
C1C[NH2+]CCSCCN1 showed a pKa of 4.16.
Work on COc1ccc(-c2cnc(-c3ccccc3)o2)cc1 yielded a pKa of 1.05.
CC(C)([NH3+])CN showed a pKa of 6.79.
In the case of Cc1cc(C)nc(NS(=O)(=O)c2ccc([NH3+])cc2)n1, the pKa is reported as -0.89.
For COc1cccnn1, the pKa was 2.52.
In the case of CCSC(=O)c1ccc(Cl)cc1, the pKa is reported as -5.02.
O=C([O-])c1c2ccccc2nc2ccccc12 showed a pKa of 5.
Work on Oc1ccc2ccncc2c1 yielded a pKa of 5.7.
O[C@@H]1[C@H](O)[C@@H](n2cnc3cncnc32)OC[C@@H]1O showed a pKa of 1.8.
For CC(=O)N1CCNCC1, the pKa was 7.94.
For [O-]c1ccc([O-])nn1, the pKa was 13.
CCOCCn1c(CN2CCC[NH+](CCCCn3cc(C(=O)[O-])cn3)CC2)nc2ccccc21 gave a pKa of 4.8.
In the case of NCc1nnn[n-]1, the pKa is reported as 8.54.
CC(C)(C)[C@]1(O)CCN2C[C@H]3c4ccccc4CCc4cccc(c43)[C@@H]2C1 gave a pKa of 7.15.
Work on c1ccc(CN(CC2=NCCN2)c2ccccc2)cc1 yielded a pKa of 10.1.
Work on c1ccc2cc(NCC[NH2+]c3ccc4ccccc4c3)ccc2c1 yielded a pKa of 1.8.
CCN(CC)Cc1cn2nc(-c3ccccc3)cc(C)c2n1 showed a pKa of 8.79.
Compound COCCCN has a pKa of 9.92.
Work on c1ccc(NC2CCCC2)cc1 yielded a pKa of 5.3.
Compound N[C@H]1CC(=O)NC1=O has a pKa of 9.
For O=[N+]([O-])c1cnc([O-])nc1[O-], the pKa was 11.5.
For CC(=O)Oc1cccc2cccnc12, the pKa was 3.3.
Cc1cc(NN)nc2ccccc12 gave a pKa of 8.35.
For Cn1cnc2ncncc21, the pKa was 2.29.
Work on Oc1cncnc1 yielded a pKa of 1.87.
In the case of CSc1ncc2[nH]cnc2n1, the pKa is reported as 1.91.
With CCN(CC)CCCC#N the pKa was 9.29.
With NC1(C(=O)[O-])CCCC1 the pKa was 10.1.
C1CCC(C2CCCN2)CC1 (configuration not stated) showed a pKa of 10.8.
Work on c1c[nH]cn1 yielded a pKa of 7.07.
C[NH+](C)CCC/N=C(\c1ccccc1)c1cccc2ccccc12 gave a pKa of 4.16.
With C[Si](C)(C)CN the pKa was 10.9.
Work on Nc1cccc2[nH]ncc12 yielded a pKa of 3.29.
Compound [NH3+]CCCCCc1cccnc1 has a pKa of 5.61.
Compound O=C(Cc1ccccc1Nc1c(Cl)cccc1Cl)OCCCCN1CCOCC1 has a pKa of 8.4.
In the case of Cc1nc2cc([N+](=O)[O-])ccc2[nH]1, the pKa is reported as 5.16.
Compound C[NH+](C)CCCNc1ccnc2cccc([N+](=O)[O-])c12 has a pKa of 6.39.
CN[C@H]1C(C)[C@@H]1[NH2+]C (some centres not stated) showed a pKa of 5.68.
For O=C([O-])CCc1nc2ccccc2[nH]1, the pKa was 5.7.
With CCN(CC)CCNc1cc(Nc2ccc(Cl)cc2)nc(C)n1 the pKa was 9.3.
With c1ccc(Cc2cc(-c3ccccc3)nnc2NCC[NH+]2CCOCC2)cc1 the pKa was 3.6.
CSc1nc(N)c2[nH]cnc2n1 gave a pKa of 3.1.
Cc1cc(-c2ccccc2)n(-c2ccc(C(=O)O)cc2)n1 showed a pKa of 1.59.
Cc1ccc2c(c1)NCC[NH2+]2 showed a pKa of 2.03.
Work on CCOc1ccc2nccc([C@@H](O)[C@@H]3C[C@H]4CCN3C[C@@H]4CC)c2c1 yielded a pKa of 8.5.
Cc1cc(NCCC[NH+](C)C)c2c([N+](=O)[O-])cccc2n1 showed a pKa of 6.41.
COCc1nc(C)c[nH]1 showed a pKa of 7.03.
In the case of CC(CN(C)C)[NH+](C)C (configuration not stated), the pKa is reported as 5.4.
C=C(C)C(=O)OC(C)CN(C)C (configuration not stated) showed a pKa of 7.96.
With CN(C)CCOC(c1ccccc1)c1ccc(Br)cc1 (configuration not stated) the pKa was 8.64.
Nc1nc([O-])c2ncn([C@H]3O[C@@H](CO)[C@H](O)[C@@H]3O)c2n1 showed a pKa of 9.41.
Compound N/C(=N\O)c1ccccc1 has a pKa of 4.97.
With Cc1cc2nc3ccc(N(C)C)cc3[nH+]c2cc1N the pKa was 0.2.
O=C(O)c1nccs1 showed a pKa of 2.57.
With Cn1cc(N)cn1 the pKa was 5.52.
In the case of Nc1nccc([O-])n1, the pKa is reported as 9.42.
For COc1nc2ccccc2nc1OC, the pKa was -1.15.
In the case of CC1CCN(C(C)C=C(c2cccs2)c2cccs2)CC1 (configuration not stated), the pKa is reported as 8.2.
With Nc1ccc2cc([N+](=O)[O-])ccc2c1 the pKa was 2.9.
Work on Cc1c[nH]cn1 yielded a pKa of 7.51.
Cc1cc([O-])ncn1 showed a pKa of 9.
For COc1ccc(Cl)c2cccnc12, the pKa was 4.13.
For CC(C)(S)C(C(=O)[O-])n1ccnc1Cc1ccccc1 (configuration not stated), the pKa was 7.
CCCCNCC(=O)c1ccc(O)cc1 showed a pKa of 8.55.
In the case of O=C(O)c1ccoc1, the pKa is reported as -0.59.
Cc1nc(C(=O)[O-])ccc1O showed a pKa of 5.13.
For CC(C)C[C@H](N)C(=O)[O-], the pKa was 9.62.
Work on CNc1ccnc([S-])n1 yielded a pKa of 11.1.
Compound Cc1nc2c(N)cccc2[nH]1 has a pKa of 8.1.
Work on C=CCC(C)(CN(CC)CC)OC(C)=O (configuration not stated) yielded a pKa of 9.85.
Compound COc1ccc(I)cc1C(=O)N[C@@H]1C[C@H]2CC[C@@H](C1)N2Cc1ccccc1 has a pKa of 8.79.
For Cc1cc(N)ccc1C[NH3+], the pKa was 4.26.
COC(=O)[C@@H](N)Cc1c[nH]cn1 gave a pKa of 7.33.
CCCCCCCCCCCCCCCCCCCCCCN gave a pKa of 10.6.
For O=C([O-])CN(CC(=O)[O-])Cc1cc([N+](=O)[O-])ccc1[O-], the pKa was 10.2.
c1c(CN2CCNCC[NH2+]CC2)n[nH]c1CN1CCNCC[NH2+]CC1 gave a pKa of 6.8.
With CN1CCCC1c1ccccc1 (configuration not stated) the pKa was 8.8.
In the case of CCN(CC)Cc1cc(C)ccc1O, the pKa is reported as 8.94.
In the case of Fc1cccnc1, the pKa is reported as 2.97.
For OC[C@H]1CCCN2CCCC[C@@H]12, the pKa was 10.2.
O/C(=C/c1ccccn1)c1ccccc1 showed a pKa of 3.57.
For [O-]c1cc[n+]([C@H]2O[C@@H](CO)[C@H](O)[C@H]2O)c([O-])n1, the pKa was 9.3.
Work on C1CNCC[NH2+]CCN1 yielded a pKa of 6.97.
NC(CO)CO gave a pKa of 8.63.
